Test results: patent publication US7579356B2, “Thia-tetraazaacenaphthylene kinase inhibitors” (Janssen Pharmaceutica NV, priority 2005, dated 2009)

Legend:
EGFR = biological target: T1, EGFR (Homo sapiens, UniProt P00533); assay: EGFR Kinase Assay; assay type: biochemical; conditions: for IC50: GST-EGFR, ATP 5 μM; for inhibition at 2 µM: test concentration of 2 μM, compounds without an IC50, read-out: EGFR inhibition in percent
T1 construct: The intracellular portion of EGFR started at nucleotide 2189 (corresponding to amino acid 667) and ended at the termination codon; made in house; host or cells: Sf9 insect cells (baculovirus)
T1 sequence (P00533 669-1210 limits assumed): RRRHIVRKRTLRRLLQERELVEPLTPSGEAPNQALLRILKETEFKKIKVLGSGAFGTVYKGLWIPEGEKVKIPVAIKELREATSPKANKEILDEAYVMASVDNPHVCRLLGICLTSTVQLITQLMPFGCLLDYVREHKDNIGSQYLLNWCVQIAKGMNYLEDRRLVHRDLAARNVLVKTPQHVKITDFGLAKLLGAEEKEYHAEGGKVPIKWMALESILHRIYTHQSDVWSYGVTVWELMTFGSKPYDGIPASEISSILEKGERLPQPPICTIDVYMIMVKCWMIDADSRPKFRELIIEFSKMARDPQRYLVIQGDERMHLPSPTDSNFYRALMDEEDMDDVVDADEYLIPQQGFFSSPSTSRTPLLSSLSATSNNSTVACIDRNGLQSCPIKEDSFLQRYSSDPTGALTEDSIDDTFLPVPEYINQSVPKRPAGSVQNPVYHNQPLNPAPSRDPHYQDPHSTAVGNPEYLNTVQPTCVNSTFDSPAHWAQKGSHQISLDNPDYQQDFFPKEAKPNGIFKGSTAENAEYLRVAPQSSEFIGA
Summary of the method: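 Potency came from triplicate 16-point half-log titrations starting at 200 uM, with IC50 fitted from % inhibition against log concentration, or % inhibition at 2 μM otherwise. Reaction: Sf9-made GST–EGFR cytoplasmic region (aa 667 onward), biotin-polyGluTyr, 5 μM ATP with 33P tracer, pH 8.0 Tris/Mg/vanadate/DTT, 30 °C for 1 h; captured on streptavidin Flashplates and counted.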

c-Src kinase (human) = biological target: T2, c-Src kinase (human) (Homo sapiens, UniProt P12931); assay: c-Src Kinase Assay; assay type: biochemical; conditions: test concentration of 2 μM; multiple values are separate assay results
T2 construct: purchased Upstate Biotechnology, Lake Placid, N.Y
T2 sequence (P12931 whole entry): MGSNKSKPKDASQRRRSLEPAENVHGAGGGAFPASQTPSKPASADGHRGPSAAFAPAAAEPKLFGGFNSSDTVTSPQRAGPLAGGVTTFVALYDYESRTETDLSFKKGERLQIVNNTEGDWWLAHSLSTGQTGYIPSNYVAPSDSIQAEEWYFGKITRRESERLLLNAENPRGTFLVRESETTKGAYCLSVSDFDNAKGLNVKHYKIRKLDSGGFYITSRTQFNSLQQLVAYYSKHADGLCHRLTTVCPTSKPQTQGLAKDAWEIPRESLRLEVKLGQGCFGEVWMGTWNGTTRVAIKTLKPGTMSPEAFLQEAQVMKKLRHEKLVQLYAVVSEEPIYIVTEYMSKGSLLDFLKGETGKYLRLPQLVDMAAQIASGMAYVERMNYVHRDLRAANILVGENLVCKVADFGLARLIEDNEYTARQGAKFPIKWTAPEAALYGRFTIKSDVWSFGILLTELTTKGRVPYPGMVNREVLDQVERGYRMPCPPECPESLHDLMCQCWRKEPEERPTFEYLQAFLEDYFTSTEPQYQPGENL
Summary of the method: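 Inhibition was read as 33P incorporation, counted on P30 filtermats, after a 40 min, 30° C reaction. Human c-Src acted on 100 μM Cdc2 peptide with 5 μM ATP (final), pH 7.0 MOPS/MgCl2. Values are percent inhibition at 2 μM compound, or IC50 where determined.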

Lyn kinase (human) = biological target: T3, Lyn kinase (human) (Homo sapiens, UniProt P07948); assay: Lyn Kinase Assay; assay type: biochemical; conditions: test concentration of 2 μM
T3 construct: purchased Upstate Biotechnology, Lake Placid, N.Y
T3 sequence (P07948 whole entry): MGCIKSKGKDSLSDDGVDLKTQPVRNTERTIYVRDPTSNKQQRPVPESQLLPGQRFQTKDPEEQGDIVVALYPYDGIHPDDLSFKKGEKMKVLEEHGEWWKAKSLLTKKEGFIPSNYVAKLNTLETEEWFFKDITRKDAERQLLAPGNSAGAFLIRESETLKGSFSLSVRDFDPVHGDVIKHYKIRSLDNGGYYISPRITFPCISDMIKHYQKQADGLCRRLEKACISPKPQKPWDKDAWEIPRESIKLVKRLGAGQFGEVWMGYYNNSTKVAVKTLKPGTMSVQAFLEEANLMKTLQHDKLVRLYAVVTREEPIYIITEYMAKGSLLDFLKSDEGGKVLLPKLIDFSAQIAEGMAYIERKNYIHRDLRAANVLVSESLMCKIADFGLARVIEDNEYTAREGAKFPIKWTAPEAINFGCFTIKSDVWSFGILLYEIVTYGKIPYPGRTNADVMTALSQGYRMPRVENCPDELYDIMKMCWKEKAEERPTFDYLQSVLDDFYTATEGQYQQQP
Summary of the method: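 Radiometric filter-binding assay with recombinant human Lyn, poly(Glu,Tyr) substrate (0.1 mg/mL final), 5 μM ATP plus γ-33P-ATP in MOPS pH 7.5/Mg acetate buffer; 40 min at 30 °C, stopped with phosphoric acid, counted by scintillation. Reported as percent inhibition at 2 μM, with IC50 (μM) where determined.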

HER-2 = biological target: T4, HER-2 (Homo sapiens, UniProt P04626); assay: HER-2 Kinase Assay; assay type: biochemical; conditions: value in parentheses
T4 construct: His6 with thrombin site (N); purchased Proqinase (Freiburg, Germany)
T4 sequence (P04626 679-1255): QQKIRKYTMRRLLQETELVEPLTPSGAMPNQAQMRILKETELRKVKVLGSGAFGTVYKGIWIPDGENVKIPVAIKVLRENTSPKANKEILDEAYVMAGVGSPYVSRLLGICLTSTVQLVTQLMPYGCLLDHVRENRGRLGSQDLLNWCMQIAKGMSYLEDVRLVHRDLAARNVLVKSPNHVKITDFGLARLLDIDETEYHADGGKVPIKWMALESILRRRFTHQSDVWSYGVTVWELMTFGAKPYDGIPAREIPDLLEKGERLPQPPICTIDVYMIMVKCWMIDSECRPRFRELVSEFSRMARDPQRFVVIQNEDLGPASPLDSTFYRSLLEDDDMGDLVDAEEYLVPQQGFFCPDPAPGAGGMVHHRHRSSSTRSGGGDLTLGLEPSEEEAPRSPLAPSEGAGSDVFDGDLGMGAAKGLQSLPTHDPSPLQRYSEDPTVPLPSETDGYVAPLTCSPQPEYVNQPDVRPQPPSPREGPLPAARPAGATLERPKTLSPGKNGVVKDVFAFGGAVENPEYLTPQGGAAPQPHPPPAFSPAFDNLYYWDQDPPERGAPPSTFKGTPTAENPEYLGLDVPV
Summary of the method: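 Read-out was scintillation counting of 33P incorporated into biotinylated polyGluTyr captured on streptavidin plates. Reactions ran 1 h at 30 °C with GST-fused HER-2 residues 679–1255, 1 μM ATP, Mn2+ and Mg2+ at pH 7.5; data given as percent inhibition at 1 μM, with IC50 where determined.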

HER-4 = biological target: T5, HER-4 (Homo sapiens, UniProt Q15303); assay: HER-4 Kinase Assay; assay type: biochemical
T5 construct: His6 with thrombin site (N); purchased Proqinase (Freiburg, Germany)
T5 sequence (Q15303 676-1307): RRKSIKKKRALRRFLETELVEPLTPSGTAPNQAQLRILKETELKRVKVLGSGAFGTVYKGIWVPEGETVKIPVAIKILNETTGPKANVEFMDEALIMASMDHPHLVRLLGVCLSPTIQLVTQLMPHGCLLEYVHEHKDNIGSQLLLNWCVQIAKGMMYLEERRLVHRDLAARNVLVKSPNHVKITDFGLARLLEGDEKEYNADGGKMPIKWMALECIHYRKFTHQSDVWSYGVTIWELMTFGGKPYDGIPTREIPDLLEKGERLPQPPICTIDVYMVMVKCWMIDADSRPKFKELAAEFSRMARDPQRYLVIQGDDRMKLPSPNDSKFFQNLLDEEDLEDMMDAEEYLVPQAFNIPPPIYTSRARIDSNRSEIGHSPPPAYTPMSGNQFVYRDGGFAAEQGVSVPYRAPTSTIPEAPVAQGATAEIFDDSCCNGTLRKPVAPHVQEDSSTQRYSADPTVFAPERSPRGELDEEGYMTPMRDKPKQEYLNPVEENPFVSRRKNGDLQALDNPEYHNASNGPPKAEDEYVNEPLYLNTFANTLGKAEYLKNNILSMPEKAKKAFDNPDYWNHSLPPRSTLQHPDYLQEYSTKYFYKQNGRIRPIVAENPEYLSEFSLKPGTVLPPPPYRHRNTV
Protocol: The HER-4 kinase used was purified at Proqinase (Freiburg, Germany) from a construct that consisted of a fusion of GST (Glutathione-S-Transferase), HIS6-Thrombin and the nucleotides encoding amino acids 676 to 1307 of HER-4 (Accession NM 005235).
A mixture of a 10× kinase reaction buffer (600 mM Hepes at pH 7.5, 30 mM Magnesium Chloride, 0.03 mM Sodium Vanadate and 500 μg/mL PEG 20,000), DTT (1.2 mM final from a 10 mM) stock), ATP (1 μM from a 10 mM stock), biotinylated polyGluTyr (1.5 ng/μL final from stock of 1 μg/μL) prepared by Upstate Biotechnologies, Lake Placid, N.Y.), Manganese Chloride (3 mM final from a 1 M stock), γ-^33P-ATP (10 μCl/mL stock) and water (70 μL/well) was added to each well of a Streptavidin Flashplate (Cat. # SMP103, NEN, Boston, Mass.).
Test compound stock (1 μL) was added to the appropriate wells. Diluted GST HER-4 kinase (6.7 ng/μL diluted into 50 mM Tris-HCl at pH 8.0 and 0.1% bovine serum albumin) (30 μL) was added (total volume of 200 ng/well) to initiate the reactions.
The reaction plates were incubated at 30° C. for 1 hr. The reaction was terminated by aspirating the reaction mixture from the plate wells and washing the wells three times with a 1×PBS stop buffer (300 μL) and 100 mM EDTA. After the final wash, the same stop buffer (200 μL) was again added to the wells. The plates were then sealed and read on the TopCount scintillation counter.
For a series of test concentrations, the IC50 was derived by graphing percent inhibition against the log of the concentrations tested for a given compound.

N87 cells = assay: In Vivo Models - Inhibition of Tumor Growth, N87; conditions: Mus musculus, po, 720 h, 100 mg/kg, oral daily for 30 days, athymic mice; read-out: percent inhibition N87
Protocol: In Vivo Models—Inhibition of Tumor Growth
The ability of test compounds to inhibit unregulated growth of human tumor cells in vivo was evaluated by implanting human tumor cells into the hindflank of athymic mice, administering a test compound and then quantifying any change in tumor size.
Human epidermoid A431 carcinoma, N87 cells and BT474 cells were implanted subcutaneously into the hindflank of female athymic mice (Charles River) and allowed to grow for 6-10 days. After a measurable tumor was established (as determined by baseline caliper measurement), the animal was administered an oral dose of the test compound daily for a period of 30 days. Tumor size was measured every five days and the degree of inhibition was determined by comparing drug-treated animals to vehicle-treated animals.
Variations of this method are intended to include intraperitoneal injection or intravenous infusion as the route of administration and administration of the test compound either alone or in a combination therapy.
The inhibition of tumor growth values are shown in Table 8 at various test concentrations, as indicated. For compounds with multiple values at one test concentration, each value represents a separate assay result.

Row | Structure (SMILES) | IC50 (EGFR) [nM] | inhibition at 2 µM (c-Src kinase (human)) [%] | inhibition at 2 µM (Lyn kinase (human)) [%] | IC50 (HER-2) [nM] | inhibition at 2 µM (EGFR) [%] | IC50 (HER-4) [nM] | inhibition in vivo at 100 mg/kg (N87 cells) [%]
1 | O=C(Nc1ccc(CN2CCCCC2)cc1)c1sc2ncnc3c2c1NC(=O)N3c1ccc(Cc2ccccc2)cc1 [Cpd 164, 5-(4-benzyl-phenyl)-4-oxo-4,5-dihydro-3H-1-thia-3,5,6,8-tetraaza-acenaphthylene-2-carboxylic acid (4-piperidin-1-ylmethyl-phenyl)-amide] | 11 | 25 | 35 | 103 |  |  | 
2 | O=C(Nc1ccc(CN2CCOCC2)cc1)c1sc2ncnc3c2c1NC(=O)N3c1ccc(Cc2ccccc2)cc1 [Cpd 165, 5-(4-benzyl-phenyl)-4-oxo-4,5-dihydro-3H-1-thia-3,5,6,8-tetraaza-acenaphthylene-2-carboxylic acid (4-morpholin-4-ylmethyl-phenyl)-amide] | 23 | 29 | 39 | 157 |  |  | 
3 | O=C(Nc1ccc(CCN2CCCCC2)cc1)c1sc2ncnc3c2c1NC(=O)N3c1ccc(Oc2ccccc2)cc1 [Cpd 166, 4-oxo-5-(4-phenoxy-phenyl)-4,5-dihydro-3H-1-thia-3,5,6,8-tetraaza-acenaphthylene-2-carboxylic acid [4-(2-piperidin-1-yl-ethyl)-phenyl]-amide] | 21 | 22 | 51 | 171 |  |  | 
4 | COc1cc(NC(=O)c2sc3ncnc4c3c2NC(=O)N4c2ccc(Oc3ccccc3)cc2)ccc1OCCN1CCOCC1 [Cpd 167, 4-oxo-5-(4-phenoxy-phenyl)-4,5-dihydro-3H-1-thia-3,5,6,8-tetraaza-acenaphthylene-2-carboxylic acid [3-methoxy-4-(2-morpholin-4-yl-ethoxy)-phenyl]-amide] | 20 | 35 | 51 | 129 |  |  | 
5 | O=C(O)c1sc2ncnc3c2c1NC(=O)N3c1ccc(Oc2ccccc2)cc1 [Cpd 168, 4-oxo-5-(4-phenoxy-phenyl)-4,5-dihydro-3H-1-thia-3,5,6,8-tetraaza-acenaphthylene-2-carboxylic acid] | 452 | -21 | 28 | 12200 |  |  | 
6 | C[C@H](c1ccccc1)N1C(=O)Nc2c(C(=O)O)sc3ncnc1c23 [Cpd 170, 4-oxo-5-[(1R)-1-phenyl-ethyl]-4,5-dihydro-3H-1-thia-3,5,6,8-tetraaza-acenaphthylene-2-carboxylic acid] |  | 4 | 12 | > 100000 | 11 |  | 
7 | C[C@H](c1ccccc1)N1C(=O)Nc2c(C(=O)NC3CCN(C)CC3)sc3ncnc1c23 [Cpd 173, 4-oxo-5-[(1R)-1-phenyl-ethyl]-4,5-dihydro-3H-1-thia-3,5,6,8-tetraaza-acenaphthylene-2-carboxylic acid (1-methyl-piperidin-4-yl)-amide] |  | -8 | -5 | > 100000 | -3 |  | 
8 | O=C(Nc1ccc(CN2CCOCC2)cc1)c1sc2ncnc3c2c1NC(=O)N3c1ccc2c(cnn2Cc2cccc(F)c2)c1 [Cpd 175, 5-[1-(3-fluoro-benzyl)-1H-indazol-5-yl]-4-oxo-4,5-dihydro-3H-1-thia-3,5,6,8-tetraaza-acenaphthylene-2-carboxylic acid (4-morpholin-4-ylmethyl-phenyl)-amide] | 130 | -1 | 0 | 515 |  |  | 
9 | COc1cc(NC(=O)c2sc3ncnc4c3c2NC(=O)N4c2ccc(Oc3ccccc3)cc2)ccc1CN1CCOCC1 [Cpd 176, 4-oxo-5-(4-phenoxy-phenyl)-4,5-dihydro-3H-1-thia-3,5,6,8-tetraaza-acenaphthylene-2-carboxylic acid (3-methoxy-4-morpholin-4-ylmethyl-phenyl)-amide] | 22 |  |  | 12 |  | 47 | 
10 | Cc1cc(NC(=O)c2sc3ncnc4c3c2NC(=O)N4c2ccc(Oc3ccccc3)cc2)ccc1CN1CCOCC1 [Cpd 232, 4-oxo-5-(4-phenoxy-phenyl)-4,5-dihydro-3H-1-thia-3,5,6,8-tetraaza-acenaphthylene-2-carboxylic acid (3-methyl-4-morpholin-4-ylmethyl-phenyl)-amide] | 41 |  |  | 28 |  |  | 30.3
11 | O=C(Nc1ccc(CN2CCCC(F)C2)cc1)c1sc2ncnc3c2c1NC(=O)N3c1ccc(Oc2ccccc2)cc1 (centres unmarked) [Cpd 234, 4-oxo-5-(4-phenoxy-phenyl)-4,5-dihydro-3H-1-thia-3,5,6,8-tetraaza-acenaphthylene-2-carboxylic acid [4-(3-fluoro-piperidin-1-ylmethyl)-phenyl]-amide] | 52 |  |  | 34 |  | 59 | 
12 | CN(C)c1cc(NC(=O)c2sc3ncnc4c3c2NC(=O)N4c2ccc(Oc3ccccc3)cc2)ccc1CN1CCOCC1 [Cpd 257, 4-oxo-5-(4-phenoxy-phenyl)-4,5-dihydro-3H-1-thia-3,5,6,8-tetraaza-acenaphthylene-2-carboxylic acid (3-dimethylamino-4-morpholin-4-ylmethyl-phenyl)-amide] | 96 |  |  | 24 |  |  | 71.2
13 | NC1CCN(Cc2ccc(NC(=O)c3sc4ncnc5c4c3NC(=O)N5c3ccc(Oc4ccccc4)cc3)cc2)CC1 [Cpd 259, 4-oxo-5-(4-phenoxy-phenyl)-4,5-dihydro-3H-1-thia-3,5,6,8-tetraaza-acenaphthylene-2-carboxylic acid [4-(4-amino-piperidin-1-ylmethyl)-phenyl]-amide] | 21 |  |  | 11 |  |  | 46.8
14 | O=C(Nc1ccc(CN2CCOCC2)c(O)c1)c1sc2ncnc3c2c1NC(=O)N3c1ccc(Oc2ccccc2)cc1 [Cpd 262, 4-oxo-5-(4-phenoxy-phenyl)-4,5-dihydro-3H-1-thia-3,5,6,8-tetraaza-acenaphthylene-2-carboxylic acid (3-hydroxy-4-morpholin-4-ylmethyl-phenyl)-amide] | 35 |  |  | 19 |  |  | 70.5
15 | O=C(Nc1ccc(CN2CCC(F)(F)CC2)cc1)c1sc2ncnc3c2c1NC(=O)N3c1ccc(Oc2ccccc2)cc1 [Cpd 263, 4-oxo-5-(4-phenoxy-phenyl)-4,5-dihydro-3H-1-thia-3,5,6,8-tetraaza-acenaphthylene-2-carboxylic acid [4-(4,4-difluoro-piperidin-1-ylmethyl)-phenyl]-amide] |  |  |  | 523 | 83 |  | 18.1
